Reference: ChEMBL document CHEMBL1649285, “In vivo efficacy of 1- and 2-gram human simulated prolonged infusions of doripenem against Pseudomonas aeruginosa” (Antimicrob Agents Chemother, 2009)
In brackets after ≈: the same amount, converted by molar mass.

Key:
Assay type in all cases: functional
Pseudomonas aeruginosa [1] = assay: Antimicrobial activity against Pseudomonas aeruginosa isolate 1036 by broth microdilution method
Pseudomonas aeruginosa [2] = assay: Antimicrobial activity against Pseudomonas aeruginosa isolate 944 by broth microdilution method
Pseudomonas aeruginosa [3] = assay: Antimicrobial activity against Pseudomonas aeruginosa isolate 1050 by broth microdilution method
Pseudomonas aeruginosa [4] = assay: Antimicrobial activity against Pseudomonas aeruginosa isolate 878 by broth microdilution method
Pseudomonas aeruginosa [5] = assay: Antimicrobial activity against Pseudomonas aeruginosa isolate 988 by broth microdilution method
Pseudomonas aeruginosa [6] = assay: Antimicrobial activity against Pseudomonas aeruginosa isolate 856 by broth microdilution method
Pseudomonas aeruginosa [7] = assay: Antimicrobial activity against Pseudomonas aeruginosa isolate 927 by broth microdilution method
Pseudomonas aeruginosa [8] = assay: Antimicrobial activity against Pseudomonas aeruginosa isolate 968 by broth microdilution method
Pseudomonas aeruginosa [9] = assay: Antimicrobial activity against Pseudomonas aeruginosa isolate 971 by broth microdilution method
Pseudomonas aeruginosa [10] = assay: Antimicrobial activity against Pseudomonas aeruginosa isolate 821 by broth microdilution method
Pseudomonas aeruginosa [11] = assay: Antimicrobial activity against Pseudomonas aeruginosa isolate 1080 by broth microdilution method
Pseudomonas aeruginosa [12] = assay: Antimicrobial activity against Pseudomonas aeruginosa isolate 1093 by broth microdilution method
Pseudomonas aeruginosa [13] = assay: Antimicrobial activity against Pseudomonas aeruginosa isolate 1060 by broth microdilution method
Pseudomonas aeruginosa [14] = assay: Antimicrobial activity against Pseudomonas aeruginosa isolate 1095 by broth microdilution method
Pseudomonas aeruginosa [15] = assay: Antimicrobial activity against Pseudomonas aeruginosa isolate 22 by broth microdilution method
Pseudomonas aeruginosa [16] = assay: Antimicrobial activity against Pseudomonas aeruginosa isolate 896 by broth microdilution method
Pseudomonas aeruginosa [17] = assay: Antimicrobial activity against Pseudomonas aeruginosa isolate 1006 by broth microdilution method
Pseudomonas aeruginosa [18] = assay: Antimicrobial activity against Pseudomonas aeruginosa isolate 913 by broth microdilution method
Pseudomonas aeruginosa [19] = assay: Antimicrobial activity against Pseudomonas aeruginosa isolate 1036 by broth microdilution method in presence of beta-lactamase inhibitor Tazobactam
Pseudomonas aeruginosa [20] = assay: Antimicrobial activity against Pseudomonas aeruginosa isolate 944 by broth microdilution method in presence of beta-lactamase inhibitor Tazobactam
Pseudomonas aeruginosa [21] = assay: Antimicrobial activity against Pseudomonas aeruginosa isolate 1050 by broth microdilution method in presence of beta-lactamase inhibitor Tazobactam
Pseudomonas aeruginosa [22] = assay: Antimicrobial activity against Pseudomonas aeruginosa isolate 1060 by broth microdilution method in presence of beta-lactamase inhibitor Tazobactam
Pseudomonas aeruginosa [23] = assay: Antimicrobial activity against Pseudomonas aeruginosa isolate 1095 by broth microdilution method in presence of beta-lactamase inhibitor Tazobactam
Pseudomonas aeruginosa [24] = assay: Antimicrobial activity against Pseudomonas aeruginosa isolate 22 by broth microdilution method in presence of beta-lactamase inhibitor Tazobactam
Pseudomonas aeruginosa [25] = assay: Antimicrobial activity against Pseudomonas aeruginosa isolate 878 by broth microdilution method in presence of beta-lactamase inhibitor Tazobactam
Pseudomonas aeruginosa [26] = assay: Antimicrobial activity against Pseudomonas aeruginosa isolate 896 by broth microdilution method in presence of beta-lactamase inhibitor Tazobactam
Pseudomonas aeruginosa [27] = assay: Antimicrobial activity against Pseudomonas aeruginosa isolate 988 by broth microdilution method in presence of beta-lactamase inhibitor Tazobactam
Pseudomonas aeruginosa [28] = assay: Antimicrobial activity against Pseudomonas aeruginosa isolate 1006 by broth microdilution method in presence of beta-lactamase inhibitor Tazobactam
Pseudomonas aeruginosa [29] = assay: Antimicrobial activity against Pseudomonas aeruginosa isolate 856 by broth microdilution method in presence of beta-lactamase inhibitor Tazobactam
Pseudomonas aeruginosa [30] = assay: Antimicrobial activity against Pseudomonas aeruginosa isolate 913 by broth microdilution method in presence of beta-lactamase inhibitor Tazobactam
Pseudomonas aeruginosa [31] = assay: Antimicrobial activity against Pseudomonas aeruginosa isolate 927 by broth microdilution method in presence of beta-lactamase inhibitor Tazobactam
Pseudomonas aeruginosa [32] = assay: Antimicrobial activity against Pseudomonas aeruginosa isolate 968 by broth microdilution method in presence of beta-lactamase inhibitor Tazobactam
Pseudomonas aeruginosa [33] = assay: Antimicrobial activity against Pseudomonas aeruginosa isolate 971 by broth microdilution method in presence of beta-lactamase inhibitor Tazobactam
Pseudomonas aeruginosa [34] = assay: Antimicrobial activity against Pseudomonas aeruginosa isolate 821 by broth microdilution method in presence of beta-lactamase inhibitor Tazobactam
Pseudomonas aeruginosa [35] = assay: Antimicrobial activity against Pseudomonas aeruginosa isolate 1080 by broth microdilution method in presence of beta-lactamase inhibitor Tazobactam
Pseudomonas aeruginosa [36] = assay: Antimicrobial activity against Pseudomonas aeruginosa isolate 1093 by broth microdilution method in presence of beta-lactamase inhibitor Tazobactam

| Compound | MIC (Pseudomonas aeruginosa [1]) | MIC (Pseudomonas aeruginosa [2]) | MIC (Pseudomonas aeruginosa [3]) | MIC (Pseudomonas aeruginosa [4]) | MIC (Pseudomonas aeruginosa [5]) | MIC (Pseudomonas aeruginosa [6]) | MIC (Pseudomonas aeruginosa [7]) | MIC (Pseudomonas aeruginosa [8]) | MIC (Pseudomonas aeruginosa [9]) | MIC (Pseudomonas aeruginosa [10]) | MIC (Pseudomonas aeruginosa [11]) | MIC (Pseudomonas aeruginosa [12]) | MIC (Pseudomonas aeruginosa [13]) | MIC (Pseudomonas aeruginosa [15]) | MIC (Pseudomonas aeruginosa [16]) | MIC (Pseudomonas aeruginosa [17]) | MIC (Pseudomonas aeruginosa [18]) | further results |
| --- | --- | --- | --- | --- | --- | --- | --- | --- | --- | --- | --- | --- | --- | --- | --- | --- | --- | --- |
| O=C(O)c1cn(C2CC2)c2cc(N3CCNCC3)c(F)cc2c1=O [CIPROFLOXACIN] | 3 µg/mL (≈ 9.05 µM) | 4 µg/mL (≈ 12.1 µM) | > 32 µg/mL | > 32 µg/mL | 4 µg/mL (≈ 12.1 µM) | > 32 µg/mL | > 32 µg/mL | > 32 µg/mL | > 32 µg/mL | > 32 µg/mL | > 32 µg/mL | > 32 µg/mL | – | – | – | – | – | – |
| CC(C)(O/N=C(\C(=O)N[C@@H]1C(=O)N2C(C(=O)[O-])=C(C[n+]3ccccc3)CS[C@H]12)c1csc(N)n1)C(=O)O [CEFTAZIDIME] | 2 µg/mL (≈ 3.66 µM) | 4 µg/mL (≈ 7.32 µM) | 3 µg/mL (≈ 5.49 µM) | 12 µg/mL (≈ 22 µM) | 6 µg/mL (≈ 11 µM) | > 256 µg/mL | 8 µg/mL (≈ 14.6 µM) | 24 µg/mL (≈ 43.9 µM) | 48 µg/mL (≈ 87.8 µM) | 64 µg/mL (≈ 117 µM) | 16 µg/mL (≈ 29.3 µM) | 4 µg/mL (≈ 7.32 µM) | 2 µg/mL (≈ 3.66 µM) | 16 µg/mL (≈ 29.3 µM) | 12 µg/mL (≈ 22 µM) | 4 µg/mL (≈ 7.32 µM) | 24 µg/mL (≈ 43.9 µM) | MIC (Pseudomonas aeruginosa [14]): 16 µg/mL (≈ 29.3 µM) |
| CO/N=C(\C(=O)N[C@@H]1C(=O)N2C(C(=O)[O-])=C(C[N+]3(C)CCCC3)CS[C@H]12)c1csc(N)n1 [CEFEPIME] | 12 µg/mL (≈ 25 µM) | 16 µg/mL (≈ 33.3 µM) | 4 µg/mL (≈ 8.32 µM) | 24 µg/mL (≈ 49.9 µM) | 12 µg/mL (≈ 25 µM) | > 256 µg/mL | 24 µg/mL (≈ 49.9 µM) | 32 µg/mL (≈ 66.6 µM) | 32 µg/mL (≈ 66.6 µM) | > 256 µg/mL | 64 µg/mL (≈ 133 µM) | 64 µg/mL (≈ 133 µM) | 2 µg/mL (≈ 4.16 µM) | 16 µg/mL (≈ 33.3 µM) | 12 µg/mL (≈ 25 µM) | 4 µg/mL (≈ 8.32 µM) | 12 µg/mL (≈ 25 µM) | – |
| CCN1CCN(C(=O)N[C@@H](C(=O)N[C@@H]2C(=O)N3[C@@H]2SC(C)(C)[C@@H]3C(=O)O)c2ccccc2)C(=O)C1=O [PIPERACILLIN] | – | – | – | – | – | – | – | – | – | – | – | – | – | – | – | – | – | MIC (Pseudomonas aeruginosa [19]): 3 µg/mL; MIC (Pseudomonas aeruginosa [20]): 8 µg/mL; MIC (Pseudomonas aeruginosa [21]): 8 µg/mL; MIC (Pseudomonas aeruginosa [22]): 4 µg/mL; MIC (Pseudomonas aeruginosa [23]): 12 µg/mL; MIC (Pseudomonas aeruginosa [24]): 32 µg/mL; MIC (Pseudomonas aeruginosa [25]): ≥ 256 µg/mL; MIC (Pseudomonas aeruginosa [26]): ≥ 256 µg/mL; MIC (Pseudomonas aeruginosa [27]): 64 µg/mL; MIC (Pseudomonas aeruginosa [28]): 16 µg/mL; MIC (Pseudomonas aeruginosa [29]): ≥ 256 µg/mL; MIC (Pseudomonas aeruginosa [30]): ≥ 256 µg/mL; MIC (Pseudomonas aeruginosa [31]): 32 µg/mL; MIC (Pseudomonas aeruginosa [32]): 16 µg/mL; MIC (Pseudomonas aeruginosa [33]): ≥ 256 µg/mL; MIC (Pseudomonas aeruginosa [34]): 64 µg/mL; MIC (Pseudomonas aeruginosa [35]): 16 µg/mL; MIC (Pseudomonas aeruginosa [36]): 6 µg/mL |
